Laboratory results as given in patent US20130039856A1, “Products and Methods” (priority 2010, published 2013).

Assays:
C. elegans [1] = assay: C. elegans lifespan analysis on E. coli plates; type: in vivo, Caenorhabditis elegans; conditions: for effect of media supplementation on C. elegans lifespan on aroD mutant bacteria: supplement 40 μg/ml (PABA 0.29 mM), glp-4(bn1), 25° C.; for increase in C. elegans lifespan: vs control; for effect of supplementation on extended lifespan of C. elegans on ubiG mutant bacteria: Q-deficient ubiG bacteria; for effect of supplementation on extended lifespan of C. elegans on ubiG mutant bacteria / effect of supplementation on lifespan of C. elegans on control HT115(DE3) strain: test for toxic effect of supplement; for effect of supplementation on lifespan of C. elegans on control HT115(DE3) strain: control bacteria
Procedure: Nematode growth media was prepared as described using 2.5 g/l soy peptone (Sigma P6713). Where indicated plates were supplemented with shikimic acid (40 μg/ml), I-phenylalanine, I-tryptophan and I-tyrosine (all at 40 μg/ml), 4-amino benzoic acid (PABA 40 μg/ml=0.29 mM), sodium folate (0.29 mM and 0.58 mM folic acid dissolved in NaOH). For the kanamycin treatment of bacteria, 80 μl of 10 mM kanamycin was added after 24 hours of bacterial growth as described. All compounds were from Sigma-Aldrich.
For all lifespans and unless indicated differently in Supplementary Table 1, survival analyses were performed by the following method: Eggs were prepared from bleaching adults to remove all microbes, and then placed onto plates containing aroD mutant bacteria. Animals were raised at 15° C. until adulthood due to the temperature sensitivity of mutant phenotypes. Gravid adulthoods were used to lay eggs onto fresh aroD mutant plates. At L3/L4 these animals were transferred to 25° C. and larvae of equivalent stage were put onto at least 5 plates of 25 worms for each condition. Animals were transferred to fresh plates after 7 and 14 days and scored for survival every 2-3 days. Lifespan data was analysed by JMP statistical software (SAS). Where relevant, statistical significance was determined using the Log-Rank and Wilcoxon tests of fitting to the Kaplan-Meier survival model.

E. coli [2] = assay: Effect on E. coli growth (absorbance, relative cell numbers); type: cell-based
Procedure: The inventors investigated the effect of SMX on E. coli growth. Under the conditions that caused an increase in C. elegans lifespan, they scraped the E. coli from the agar plates used to culture worms after two days of growth and used absorbance to estimate relative cell numbers. 128 μg/ml SMX caused a mean effect of reducing E. coli numbers by approx 11% (+/−5%, standard error, n=4). There was no effect on growth in liquid culture with the same nutrient conditions as used for lifespan analysis (FIG. 10).

E. coli [3] = assay: HPLC/MS folate levels in bacteria; type: cell-based; conditions: SMX-treated OP50 bacteria, duplicate experiments, FIG. 9B
Excerpt: Both the aroD mutation and treatment with SMX inhibit folate synthesis in bacteria. […] This folate species is approximately three fold less abundant in the aroD mutant compared to the control strain (in duplicate experiments, FIG. 9A) and at least 10 times less abundant in the SMX-treated OP50 bacteria compared to the untreated control (in duplicate experiments, FIG. 9B).

C. elegans [4] = assay: HPLC/MS folate levels in worms; type: in vivo; conditions: worms raised on OP50 bacteria treated with SMX, duplicate experiments, FIG. 9D
Excerpt: Similar techniques were used to quantify levels of folates in worms, although proteinase K digestion of the worms was used to get a good extraction of folates. The most abundant folate species in C. elegans using this method of detection was 5-methyl tetrahydrofolate pentaglutamate. Worms raised on aroD bacteria had 25 to 30% less of this folate species than worms on the control bacteria (in duplicate experiments, FIG. 9C). Worms raised OP50 bacteria treated with SMX had approximately 75% less folate than worms raised on the control bacteria (in duplicate experiments, FIG. 9D).

yeast = conditions: cited from earlier work
worms = conditions: cited from earlier work
flies = conditions: cited from earlier work
one species of fish = conditions: cited from earlier work
humans aged 60 to 81 = conditions: cited from earlier work

## N[C@@H](Cc1c[nH]c2ccccc12)C(=O)O [tryptophan]
C. elegans [1]
  effect of media supplementation on C. elegans lifespan on aroD mutant bacteria: small negative effect

## Cc1cc(NS(=O)(=O)c2ccc(N)cc2)no1 [SMX, sulfamethoxazole]
C. elegans [1]; 16 μg/ml SMX treatment of the bacteria
  increase in C. elegans lifespan: around 24%
C. elegans [1]; 64 μg/ml SMX, not significantly different to 16 μg/ml
  increase in C. elegans lifespan: 27%
C. elegans [1]; 128 μg/ml SMX, significantly different to 16 μg/ml (p<0.05)
  increase in C. elegans lifespan: 33%
C. elegans [1]; inhibition of the bacterial folate pathway, FIG. 6
  effect on C. elegans lifespan: lifespan can be increased
E. coli [2]; 128 μg/ml SMX, agar plates, two days of growth, absorbance, +/−5% standard error, n=4
  reduction of E. coli numbers: approx 11%
E. coli [2]; same nutrient conditions as lifespan analysis, FIG. 10
  effect on E. coli growth in liquid culture: no effect
E. coli [3]
  formyl tetrahydrofolate triglutamate abundance, decrease vs untreated control: at least 10 times
C. elegans [4]
  less folate (5-methyl tetrahydrofolate pentaglutamate) in worms vs worms on control bacteria: approximately 75%

## O=C(O)C1=C[C@@H](O)[C@@H](O)[C@H](O)C1 [shikimic acid]
C. elegans [1]
  effect of media supplementation on C. elegans lifespan on aroD mutant bacteria: revert to normal

## Oc1ccc(C=Cc2cc(O)cc(O)c2)cc1 [resveratrol]
yeast
  extension of lifespan: up to 60%
worms
  extension of lifespan: up to 30%
flies
  extension of lifespan: up to 30%
One species of fish
  extension of lifespan: ~60%

## Nc1nc2ncc(CNc3ccc(C(=O)N[C@@H](CCC(=O)O)C(=O)O)cc3)nc2c(=O)[nH]1 [folate, folic acid]
C. elegans [1]
  effect of supplementation on extended lifespan of C. elegans on ubiG mutant bacteria: no effect
  effect of supplementation on lifespan of C. elegans on control HT115(DE3) strain: no effect
C. elegans [1]; SMX plates, FIG. 8
  effect of adding folic acid to SMX plates on C. elegans lifespan: reverses the effect of SMX
C. elegans [1]; doubled folate concentration (0.58 mM, 2× folate) vs 1× folate, difference not statistically significant
  effect of folate supplementation on C. elegans lifespan on aroD mutant: slightly shorter
C. elegans [1]; same molar concentration as PABA (0.29 mM, 1× folate)
  effect of folate supplementation on C. elegans lifespan extension on aroD mutant: reduced the C. elegans lifespan extension substantially but not completely

## Nc1ccc(C(=O)O)cc1 [PABA, para-aminobenzoic acid]
C. elegans [1]
  effect of supplementation on extended lifespan of C. elegans on ubiG mutant bacteria: no effect
  effect of supplementation on lifespan of C. elegans on control HT115(DE3) strain: no effect
  effect of media supplementation on C. elegans lifespan on aroD mutant bacteria: reversed the lifespan increase completely

## CC(C)(N)C(=O)N[C@H](COCc1ccccc1)C(=O)N1CCC2(CC1)CN(S(C)(=O)=O)c1ccccc12 [MK-677]
Humans aged 60 to 81
  muscle mass lost due to ageing restored: 20%
